Patent US20250020667A1, “DEVELOPMENT OF MICROBIAL BIOSENSORS FOR INTESTINAL INFLAMMATION” (Baylor College of Medicine, priority 2017, published 2025)
Structures can show the parent of a compound that is named as a salt.

Experiments:
[1] = tested on: L. reuteri ABC transporter promoter GFP biosensor; test: Metal complementation assay (metal added to sensors co-cultured with calprotectin); type: cell-based, Lactobacillus reuteri
Protocol: Metal complementation assays—Mixes were similar to the calprotectin induction assays with the addition of zinc (II) sulfate, manganese (II) sulfate, or iron (II) chloride. Concentrations of metals were added in excess of 1×, 10×, and 100× the binding capacity of 40 ug/mL (1.4 uM) calprotectin. In total, 0, 4 uM, 40 uM, and 400 uM of zinc and iron were added and 0, 2 uM, 20 uM, and 200 uM of manganese was added. Slightly higher than equimolar amounts were added to correct for possible pipetting error. Cells were grown for the same amount of time as in the calprotectin induction assays.
Flow cytometry—˜10-40 uL of cells were added to 1 mL of PBS sheath fluid and run through the flow cytometer for a total of 10000 events. Cells were thresholded by forward/side scatter, and.fsc files were analyzed with the FlowCal software, developed by the Jeff Tabor Lab. In short, FlowCal identifies the densest region of cells on the associated scatterplot, and analyzes the fluorescent output of 30% of the cells in this region so as to evaluate a homogenous dataset and remove possible outliers. […] In this case, GFP output is reported as molecules of equivalent fluorophores (MEF), and was evaluated on the FL1 channel.

[2] = tested on: E. coli Nissle L36/L31 ribosomal accessory protein promoter GFP biosensor; settings: sensors co-cultured with calprotectin
[3] = tested on: E. coli Nissle enterobactin synthase promoter GFP biosensor
[4] = tested on: L. reuteri acyl carrier protein dehydratase promoter GFP biosensor; settings: co-cultured with 40 ug/mL calprotectin
[5] = tested on: E. coli Nissle L36/L31 ribosomal accessory protein promoter (ykgMO) GFP biosensor; test: Induction of promoter-GFP biosensor, GFP by flow cytometry; type: cell-based, Escherichia coli
Text: (§1) Initial Data. […] Sequences were obtained via Illumina NextSeq and mapped against E. coli Nissle 1917 reference genome.
(§2) Initial test constructs consisted of the intergenic promoter regions for the following genes: E. coli Nissle—sulA, entCE (enterobactin synthase operon), ykgMO (paralog for L36/L31 ribosomal accessory protein), ABC Transporter (WP_000977398.1); L. reuteri—ABC Transporter operon (EGC15836.1), Acyl carrier protein dehydratase (EGC15031.1), argininosuccinate lyase (EGC15288.1). Each promoter region was cloned directly upstream of a green fluorescent protein cassette. For L. reuteri, the eGFP cassette was used while the sGFP cassette was used for E. coli. All constructs were assembled via the Gibson Reaction (NEBiosciences).

[6] = tested on: E. coli Nissle enterobactin synthase promoter GFP biosensor; test: as above; type: cell-based, Escherichia coli
Text: as §1, §2

[7] = tested on: L. reuteri acyl carrier protein dehydratase promoter GFP biosensor; test: as above; type: cell-based, Lactobacillus reuteri; settings: co-cultured with TPEN vs uninduced sensor
Protocol: All constructs were assembled via the Gibson Reaction (NEBiosciences).
All flow runs were performed in 96 well plates.
TPEN Induction—TPEN, a synthetic zinc chelator, induction assays were performed as calprotectin induction, with TPEN replacing calprotectin. Growth condition were also identical. Media ratios differed. In the TPEN studies, 180 uL of media was used with 20 uL cells and 2 uL of TPEN in absolute ethanol.

[8] = tested on: Escherichia coli Nissle 1917; test: Minimum inhibitory concentration (MIC) assay, overnight growth, OD600; type: cell-based; settings: E. coli Nissle
Protocol: (§3) Minimum inhibitory concentration (MIC) assay—Escherichia coli Nissle 1917 and Lactobacillus reuteri PTA 6475 were used as vectors for biosensor construction. For both strains, bacteria was grown overnight in media (MRS broth for L. reuteri; LB broth for E. coli). From the overnight culture, 10^4 bacterial cells in 38 uL media (LDM4 for L. reuteri; LB broth for E. coli) were seeded into a 96 well-plate. 62 uL of calprotectin in buffer (20 mM Tris (pH 7.5), 100 mM NaCl, 10 mM beta-mercaptoethanol, 3 mM CaCl2) was added in 2-fold dilutions. Recombinant human calprotectin was supplied by Dr. Walter Chazin of Vanderbilt University. Bacteria was allowed to grow overnight, and OD600 values were taken the following morning.
(§4) RNA Isolation—Sub-inhibitory concentrations of calprotectin were used for the calprotectin induction. […] Cells were grown overnight, and then back-diluted 1:100 into 5 mL of media (LDM4 for L. reuteri; LB Broth for E. coli). Cells were grown up to log phase, and then the sub-inhibitory amount of calprotectin was added to the tube in calprotectin buffer. Growth continued for 30 total minutes in the presence of the calprotectin, and then transcription was frozen by addition of ice cold methanol for L. reuteri and ice-cold ethanol for E. coli Nissle. Cells were collected via centrifugation, and then RNA was isolated using the QIAgen RNEasy kit. Slight modifications were included. For L. reuteri, mechanical cell-wall disruption was used via bead-beating. For E. coli, lysozyme/proteinase K was used to disrupt the gram-negative cell wall. RNA was quantified and tested for purity using a Nanodrop.
(§5) Both prospective vector strains (Lactobacillus reuteri and Escherichia coli Nissle) were grown overnight in the presence of 2-fold dilutions of calprotectin in order to deduce minimum inhibitory concentrations of calprotectin on the microbes.

[9] = tested on: Lactobacillus reuteri PTA 6475; test: as above; type: cell-based; settings: L. reuteri
Protocol: as §3, §4, §5

[10] = tested on: Lactobacillus reuteri ABC transporter promoter GFP sensor; settings: 40 ug/mL calprotectin vs uninduced sensor
Text: as §2

[11] = co-cultured with 40 ug/mL calprotectin
[12] = co-cultured with 1.5 uM TPEN vs media only
[13] = overnight growth, 2-fold dilutions
[14] = 40 ug/mL calprotectin vs un-induced

O=S(=O)([O-])[O-].[Mn+2] [manganese, manganese (II) sulfate]
effect of added manganese on sensor activity ([1]; manganese at 100× binding capacity of 40 ug/mL calprotectin): did not fully ablate sensor activity

[Zn+2] [zinc, zinc (II) sulfate]
zinc concentration sufficient to totally abolish promoter activity [1, 11]: 4 µM | effect of added zinc on calprotectin-induced increase in GFP expression [2]: abolishes the calprotectin-induced increase in GFP expression | zinc concentration sufficient to totally abolish promoter activity [3, 11]: 4 µM | effect of added zinc on calprotectin-induced increase in GFP expression ([3]; sensors co-cultured with calprotectin): abolishes the calprotectin-induced increase in GFP expression | zinc concentration sufficient to totally abolish promoter activity [4]: 4 µM

c1ccc(CN(CCN(Cc2ccccn2)Cc2ccccn2)Cc2ccccn2)nc1 [TPEN, N,N,N′,N′-tetrakis(2-pyridinylmethyl)-1,2-ethanediamine]
fold increase in GFP expression [5, 12]: 4.5 fold | fold increase in GFP expression [6, 12]: 5.6 fold | fold increase in GFP expression [7]: 2.5 fold

[Cl][Fe][Cl] [iron, iron (II) chloride]
iron excess required to turn off promoter activity ([1]; × the binding capacity of 40 ug/mL calprotectin, possibly a cell survival issue): 100 ×

B1: calprotectin: neutrophil-source antimicrobial peptide heterodimer that sequesters zinc, manganese and iron; recombinant human, supplied by Dr. Walter Chazin (protein, UniProt P05109 1-93; P06702 1-114, looked up)
Protein S100-A8: MLTELEKALNSIIDVYHKYSLIKGNFHAVYRDDLKKLLETECPQYIRKKGADVWFKELDINTDGAVNFQEFLILVIKMGVAAHKKSHEESHKE
Protein S100-A9: MTCKMSQLERNIETIINTFHQYSVKLGHPDTLNQGEFKELVRKDLQNFLKKENKNEKVIEHIMEDLDTNADKQLSFEEFIMLMARLTWASHEKMHEGDEGPGHHHKPGLGEGTP
highest concentration that did not inhibit overnight growth (sub-inhibitory concentration) [8]: 125 µg/mL | minimum inhibitory concentration (growth inhibited at this concentration and above) [8, 13]: 250 µg/mL | highest concentration that did not inhibit overnight growth (sub-inhibitory concentration) [9]: 15.625 µg/mL | minimum inhibitory concentration (growth inhibited at this concentration and above) [9, 13]: 31.25 µg/mL | fold increase in GFP expression [5, 14]: 2.6 fold | fold increase in GFP expression [6, 14]: 1.8 fold | fold increase in GFP expression [10]: 4.93 fold
